From US20150110865A1, “CNS STIMULANT AND OPIOID RECEPTOR ANTAGONIST COMBINATION AS A NON-ADDICTIVE, NON-AVERSIVE AND SYNERGISTIC ANTI-OBESITY TREATMENT” (FLORIDA STATE UNIVERSITY RESEARCH FOUNDATION, priority 2013, published 2015)

Experiments:
[1] = molecular target: T1, μ opioid receptor (MOPR) (Mus musculus, UniProt P42866); type: biochemical; design: dose or concentration left out as unconfirmed; details: caudate-putamen membranes; FIG. 3
T1 construct: Caudate-putamen and nucleus accumbens are identified in the frozen slices based on anatomical landmarks and samples from these two brain regions are collected; from tissue; host or cells: mouse brain: caudate-putamen and nucleus accumbens membrane preparations
T1 sequence (P42866 whole entry): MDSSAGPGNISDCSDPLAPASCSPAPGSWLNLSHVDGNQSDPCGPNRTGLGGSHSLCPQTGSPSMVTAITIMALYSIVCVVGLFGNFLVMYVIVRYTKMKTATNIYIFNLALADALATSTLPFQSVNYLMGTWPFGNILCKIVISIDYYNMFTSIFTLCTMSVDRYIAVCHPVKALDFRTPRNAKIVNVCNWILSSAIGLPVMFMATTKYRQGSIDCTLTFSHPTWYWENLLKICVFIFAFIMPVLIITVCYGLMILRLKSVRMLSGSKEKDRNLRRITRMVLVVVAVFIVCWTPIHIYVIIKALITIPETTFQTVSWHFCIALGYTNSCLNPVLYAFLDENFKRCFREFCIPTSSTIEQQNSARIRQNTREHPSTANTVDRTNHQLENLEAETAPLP
Experimental: Activity of the μ opioid receptor (MOPR) is assayed by using [35S]GTPγS binding on membrane preparations. The same mice that are used in the conditioned place preference assay are used for these assays Immediately upon completion of the behavioral assay, the mice are sacrificed by cervical dislocation and the brain is dissected rapidly. The brain is frozen in liquid nitrogen and 1.0 mm slices of the brain were prepared in the coronal plane using a tissue-slicing matrix (Model 15003; Ted Pella, Redding, Calif.). Caudate-putamen and nucleus accumbens are identified in the frozen slices based on anatomical landmarks and samples from these two brain regions are collected using a tissue punch. The samples are homogenized using teflon pestle in Eppendorf tubes (10 strokes) in 300 μl of homogenization buffer containing 25 mMTris/pH 7.4, 5 mMEDTA and 0.1 mMPMSF and kept on ice. Homogenate is diluted to 2.5 ml using the homogenization buffer and centrifuged at −350,000 g for 30 min. After washing 3 times with 50 mM Tris-HCl/pH 7.4, the pellets are re-suspended in 50 mM Tris-HCl/pH 7.4 containing 0.32 M sucrose, passed through a 26.5 G needle 3 times, frozen in dry ice/ethanol and stored in −80° C. until use.
(§1) Nonspecific binding is defined by incubation in the presence of 10 μM GTPγS. […] Radioactivity on filters is determined by liquid scintillation counting. […]

[2] = 0.75 mg/kg MPH administered to adult mice; cited from earlier work
[3] = test system: C57/B6 mice; experiment: Conditioned place preference (CPP); type: in vivo, mouse; details: for time spent in drug-paired chamber, Test sessions compared to pre-conditioning sessions: FIG. 1; for CPP score compared to saline-treated group: FIG. 2; for time spent in drug-paired chamber, Test sessions compared to PC sessions: p>0.05, n=6; for CPP score compared to saline control group: p>0.05
Source text: C57/B6 mice are purchased from Charles River Laboratories. Only male mice are used.
A three-chamber place preference apparatus is used. The apparatus has two equally sized (16.8×12 cm) preference chambers connected by a central chamber (7.2×12 cm), and is outfitted with sliding guillotine-style doors between each chamber. Photobeams connected to a computer system can record animal location and time spent in that location. The central chamber has a gray colored smooth floor. The preference chamber is either white with a mesh floor or black with a bar floor. The CPP procedure included three phases: Pre-conditioning, conditioning and test phases.
The pre-conditioning phase is performed on day 1 (two sessions daily, AM and PM). In each pre-conditioning session, mice are initially placed in the central gray chamber for 2 min and then allowed free access to the white and black chambers for 20 min. The time spent in each chamber is recorded.
For the next phase in the assay, the conditioning phase, the non-preferred chamber (i.e. the chamber in which less time is spent) is designated as the drug-paired chamber and the preferred chamber (i.e. the chamber in which more time was spent) is designated as the vehicle-paired chamber.
The conditioning phase is carried out on each of days 2-6. There are two conditioning sessions daily, morning session between 8 and 10 AM and afternoon session between 2 and 4 PM. There is one session each for vehicle-paired (saline as vehicle) and drug-paired (MPH as drugs) conditions on each day of the conditioning phase. The mice are administered saline or drug (i.p.) in the saline- or drug-paired sessions, respectively and placed in the central gray chamber for 2 min (to isolate injection effect to the central chamber) and then confined to the vehicle-or-drug-paired chamber, respectively for 30 min. On the first day of the conditioning phase, the mouse receive saline during the morning session and the drug in the afternoon session. The next day, the order of treatments is reversed: drug in the morning session and saline in the afternoon session. These two paradigms are alternated for the remainder of the conditioning phase. This conditioning strategy is used for all the experiments except those using naltrexone.
Saline is administered on the first day and naltrexone (or naltrexone+MPH) is administered the following day. Administrations of saline and naltrexone are alternated for each of the next 9 days (total duration of conditioning is 10 days).
During the test phase, (one session on the day after the conditioning phase) the mice are placed in the central gray chamber for 2 min and then given free access to the drug- and saline-paired chambers for 20 min. The time spent in each chamber is recorded. The difference between time spent in the drug-paired chamber during the test phase and pre-conditioning phases was calculated as the CPP score. Saline and the drugs are administered intraperitoneally. All the behavioral analyses are performed during the light phase of the light-dark cycle.
Differences between two experimental groups are analyzed for statistical significance by using Student's t-test. Treatment effects on multiple groups are tested for significance by using one-way ANOVA and the differences among the groups are tested for significance by using Dunnett's multiple comparisons test.

[4] = test system: μ opioid receptor (MOPR); experiment: MOPR activity by DAMGO-stimulated [35S]GTPγS binding in brain membranes of drug-treated mice after the CPP assay; type: in vivo, mouse; details: low dose MPH 0.75 mg/kg; either brain region; FIG. 4
Experimental: Activity of the μ opioid receptor (MOPR) is assayed by using [35S]GTPγS binding on membrane preparations. The same mice that are used in the conditioned place preference assay are used for these assays Immediately upon completion of the behavioral assay, the mice are sacrificed by cervical dislocation and the brain is dissected rapidly. The brain is frozen in liquid nitrogen and 1.0 mm slices of the brain were prepared in the coronal plane using a tissue-slicing matrix (Model 15003; Ted Pella, Redding, Calif.). Caudate-putamen and nucleus accumbens are identified in the frozen slices based on anatomical landmarks and samples from these two brain regions are collected using a tissue punch. The samples are homogenized using teflon pestle in Eppendorf tubes (10 strokes) in 300 μl of homogenization buffer containing 25 mMTris/pH 7.4, 5 mMEDTA and 0.1 mMPMSF and kept on ice. Homogenate is diluted to 2.5 ml using the homogenization buffer and centrifuged at −350,000 g for 30 min. […]
as §1
Differences between two experimental groups are analyzed for statistical significance by using Student's t-test. […]

[5] = test system: prenatal nicotine exposure mouse model of ADHD; details: cited from earlier work
[6] = naltrexone 5 mg/kg prior to MPH 7.5 mg/kg, FIG. 6
[7] = naltrexone 10 mg/kg prior to MPH 7.5 mg/kg, FIG. 6

## C[C@@H](NC(=O)[C@@H](N)Cc1ccc(O)cc1)C(=O)NCC(=O)N(C)[C@@H](Cc1ccccc1)C(=O)NCCO [DAMGO]
[1]
  maximal [35S]GTPγS binding: 1.75 fold of the basal level

## COC(=O)C(c1ccccc1)C1CCCCN1 (centres unmarked) [MPH, methylphenidate]
[2]
  serum and brain concentrations of D-methylphenidate: equivalent to the levels seen in human subjects given oral therapeutic doses of MPH
[3]; high-dose MPH 7.5 mg/kg i.p., t-test p=0.005, n=6/group
  time spent in drug-paired chamber, Test sessions compared to pre-conditioning sessions: significantly longer period of time in the drug-paired chamber
[3]; high-dose MPH 7.5 mg/kg plus saline, naltrexone experiment, FIG. 5
  time spent in drug-paired chamber, Test sessions compared to pre-conditioning (PC) sessions: significantly longer period of time in the drug-paired chamber
[3]; high-dose MPH 7.5 mg/kg, multiple comparisons test
  CPP score compared to saline-treated group: significant (p<0.05) effects
[3]; high-dose MPH 7.5 mg/kg, naltrexone experiment, p<0.01, FIG. 6
  CPP score compared to saline control: significantly greater than that produced by the saline control
[3]; low dose MPH 0.75 mg/kg i.p., t-test p>0.05
  time spent in drug-paired chamber, Test sessions compared to pre-conditioning sessions: do not show significant differences
[3]; low dose MPH 0.75 mg/kg
  CPP score compared to saline-treated group: no significant difference
[4]
  MOPR activity compared to the saline group: no significant difference
[5]; 0.75 mg/kg methylphenidate
  effect on hyperactivity: reduce hyperactivity
[5]; ADHD mouse model
  time after administration at which hyperactivity started to decline: 2 h

## O=C1CC[C@@]2(O)[C@H]3Cc4ccc(O)c5c4[C@@]2(CCN3CC2CC2)[C@H]1O5 [naltrexone]
[3]; naltrexone 1 mg/kg alone, FIG. 5
  time spent in drug-paired chamber, Test sessions compared to PC sessions: Neither saline alone nor naltrexone (1 or 10 mg/kg) alone produces significant changes
[3]; naltrexone 1 mg/kg prior to MPH 7.5 mg/kg, FIG. 6
  CPP score compared to prior treatment with saline: significantly decrease the CPP score
[3]; [6]
  CPP score compared to prior treatment with saline: significantly decrease the CPP score
  CPP score compared to saline control group: not significantly different
[3]; naltrexone 10 mg/kg administered with 7.5 mg/kg methylphenidate
  abuse potential of methylphenidate: completely abolishes the abuse potential of methylphenidate
[3]; naltrexone 10 mg/kg alone, FIG. 5
  time spent in drug-paired chamber, Test sessions compared to PC sessions: Neither saline alone nor naltrexone (1 or 10 mg/kg) alone produces significant changes
[3]; [7]
  CPP score compared to prior treatment with saline: significantly decrease the CPP score
  CPP score compared to saline control group: not significantly different
[3]; naltrexone 1, 5 or 10 mg/kg prior to MPH 7.5 mg/kg, FIG. 6
  dose dependence of the decrease in the CPP score: dose-dependent
